# Reference: patent publication US20230398243A1, “THERAPEUTIC, RADIOLABELED NANOPARTICLES AND METHODS OF USE THEREOF” (The General Hospital Corporation, priority 2020, published 2023)
# System: MDA-MB-231-luc-D3H2LN cell line
# Assay: tumor cell apoptosis, proliferation, invasion, migration and cell cycle
# Format: cell-based, human
# Settings: low-dose doxorubicin
# Source text: 21.6±0.5-nm dextran coated magnetic nanoparticles were conjugated to 8±0.7 LNA antagomirs targeting miRNA-10b, (Exiqon, Woburn, MA) (FIG. 1A). The MN-anti-miR10b therapeutic was functional in the human lymph-node metastatic MDA-MB-231-luc-D3H2LN cell line (Perkin Elmer, Hopkinton MA). […] In order to assess the therapeutic potential of this methodology, the effect of miR-10b inhibition on tumor cell apoptosis, proliferation, invasion and migration was investigated.
# It was also hypothesized that by co-administering a low dose of a cytotoxic chemotherapeutic (e.g., doxorubicin), the effectiveness of the therapeutic could be amplified, leading not only to inhibition of tumor growth, but regression and, possibly, elimination of metastasis. […] Further proof for this hypothesis came from experiments in which we attempted to generate a miR-10b knock-out subline derived from the MDA-MB-231-luc-D3H2LN cell line (FIG. 3A). We observed that within 24 h of transfection with the knock-out vector set (TALEN5 L+R), the cells acquired a spindle-shaped conformation and began to detach. By 72 h of transfection, there were no viable cells (FIG. 3B).
compound,measurement,value
COc1cccc2c1C(=O)c1c(O)c3c(c(O)c1C2=O)C[C@@](O)(C(=O)CO)C[C@@H]3O[C@H]1C[C@H](N)[C@H](O)[C@H](C)O1 [doxorubicin],effect on the cell cycle (flow cytometry),induced polyploidy and G2/M arrest
